From paper PMC3700342 (Biochemical pharmacology, 2013)
Values after ≈ are worked out from the molar mass of the structure shown.

Experiments:
M. tuberculosis = test: Microtiter broth dilution MIC, M. tuberculosis; type: cell-based; settings: Mycobacterium tuberculosis, read-out: Mtb MIC
M. smegmatis = test: Microtiter broth dilution MIC, M. smegmatis; type: cell-based
M. tuberculosis H37Rv = test: Microtiter broth dilution MIC, M. tuberculosis H37Rv; type: cell-based; settings: Mycobacterium tuberculosis
[1] = tested on: M. smegmatis and M. tuberculosis growth; test: MIC in the presence of 5 mM D-alanine in the growth medium; type: cell-based; settings: data not shown
[2] = target: T1, M. smegmatis alanine racemase (Mycolicibacterium smegmatis, UniProt P94967); test: Alanine racemase assay; type: biochemical
T1 sequence (P94967 1-389): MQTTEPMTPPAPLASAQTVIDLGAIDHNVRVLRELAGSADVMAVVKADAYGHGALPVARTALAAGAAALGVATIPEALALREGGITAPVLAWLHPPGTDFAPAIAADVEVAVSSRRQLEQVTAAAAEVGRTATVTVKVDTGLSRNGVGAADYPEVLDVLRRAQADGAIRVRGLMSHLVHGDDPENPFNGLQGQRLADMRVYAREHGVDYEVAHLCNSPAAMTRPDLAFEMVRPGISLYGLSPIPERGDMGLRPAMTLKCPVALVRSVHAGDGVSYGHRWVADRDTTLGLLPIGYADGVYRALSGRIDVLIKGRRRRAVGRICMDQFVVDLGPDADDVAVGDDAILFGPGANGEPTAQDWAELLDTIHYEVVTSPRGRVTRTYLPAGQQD

[3] = target: M. tuberculosis alanine racemase (Mycobacterium tuberculosis, UniProt P9WQA9); type: biochemical
C[C@H](N)C(=O)O = test: purified protein, by the assay type
Alanine racemase assay = substrate: C[C@H](N)C(=O)O; test: Alanine racemase assay; type: biochemical, M. smegmatis; settings: other: L-alanine to D-alanine, recombinant enzyme

Sequence of M. tuberculosis alanine racemase (P9WQA9 whole entry): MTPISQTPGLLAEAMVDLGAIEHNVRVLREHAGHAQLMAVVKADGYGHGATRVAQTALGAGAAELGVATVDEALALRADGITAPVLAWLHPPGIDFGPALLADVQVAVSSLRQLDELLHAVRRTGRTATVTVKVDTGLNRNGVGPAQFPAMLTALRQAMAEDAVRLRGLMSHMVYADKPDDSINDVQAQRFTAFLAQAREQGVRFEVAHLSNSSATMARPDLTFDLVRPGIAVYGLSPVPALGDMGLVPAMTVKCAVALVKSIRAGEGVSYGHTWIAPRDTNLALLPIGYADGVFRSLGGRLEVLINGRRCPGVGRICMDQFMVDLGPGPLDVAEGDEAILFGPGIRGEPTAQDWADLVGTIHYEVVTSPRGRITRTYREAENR

N[C@@H]1CON=C1O [CS, cycloserine]
MIC (M. tuberculosis): 6.25 µg/mL (≈ 61.2 µM) | MSM MIC (M. smegmatis; 2 days, Mueller Hinton broth): 25 µg/mL | MIC (M. smegmatis; Mycolicibacterium smegmatis, 48 h, read-out: MSM MIC): 25 µg/mL (≈ 245 µM) | MIC (M. tuberculosis H37Rv): 6.25 µg/mL (≈ 61.2 µM) | increase in MIC [1]: 3 fold | IC50 [2]: > 100 µM

C[C@H](N)C(=O)O [L-alanine]
Kcat [3]: 200 | Kcat ([2]; L-alanine to D-alanine, recombinant enzyme): 4300

M. tuberculosis alanine racemase (Mycobacterium tuberculosis H37Rv)
Km (C[C@H](N)C(=O)O): 4 mM | Vmax (C[C@H](N)C(=O)O): 0.04 mM/min

B1: M. smegmatis alanine racemase (Mycolicibacterium smegmatis) (protein)
chain: T1 sequence (P94967 1-389)
Km (Alanine racemase assay): 8.5 mM | Vmax (Alanine racemase assay): 0.3 mM/min
